Patent publication US20180228861A1, “COMPOSITION FOR TREATING DIABETES AND DYSLIPIDEMIA OBTAINED FROM THE EXTRACT OF COSTUS PICTUS D.DON PLANT AND A METHOD OF PREPARING THE SAME” (ARJUNA NATURAL EXTRACTS, LTD., priority 2012, published 2018)

Columns and labels:
Type in all cases: in vivo
Conditions in all cases: extracts 40 mg/kg orally, glibenclamide 3 mg/kg orally
[1] = system: streptozotocin-induced Type 1 diabetic model in Wistar rats; experiment: Blood glucose level in streptozotocin-induced Type 1 diabetic model
Method: Evaluation of effect of different fractions of fresh leaves of Costus pictus D. Donon streptozotocin-induced Type 1 diabetic model in Wistar rats.
(§1) The study was conducted in adult male Wistar rats weighing 200-250 gm for a period of 40 days (30 days of treatment and 10 days of induction). The animals were randomly divided into seven groups comprising six each. Diabetes was induced in all the groups except the normal control group by the intra peritoneal administration of streptozotocin at 50 mg/kg. After the induction of diabetes, one group was kept as diabetic untreated control and a positive control was maintained in which the animals were treated with standard drug, glibenclamide at 3 mg/kg orally. […] The effect of the different fractions was assessed by measuring the fasting blood glucose level, post prandial blood glucose level, serum insulin levels and glycosylated Hb. The anti hyperlipidemic effect was assessed by the estimation of total cholesterol, triglyceride, LDL cholesterol, HDL cholesterol, VLDL, muscle glycogen and liver glycogen. The antioxidant effects of the different extracts were assessed by the measuring TBARS, superoxide dismutase (SOD), catalase, reduced glutathione (GSH) and glutathione peroxidase levels (GPx). TBARS was determined by TBA assay (Ohkawa et al., 1979), SOD was measured using the nitroblue tetrazolium reduction method (Kakkar et al., 1984), Catalase was assayed using the method described by Aebi (1974). GPx was measured as described by Flohe and Gunzler (1984), GSH was measured as per the method of Jollow et al., (1974). Histopathological examination of pancreas was conducted to assess the antidiabetic effect of the different fractions of Costus pictus D. Don.
Group 3—Positive control—diabetic animals treated with glibenclamide at 3 mg/kg orally.
Group 4—diabetic animals treated with methanolic extract of fresh leaves of Costus pictus D. Don, the extract has low oxalic acid and/or oxalates content (Sample 2 prepared as per Example 1) at 40 mg/kg orally. […]

[2] = system: streptozotocin-induced Type 1 diabetic model in Wistar rats; experiment: Lipid profile in streptozotocin-induced diabetic rats
Method: as §1, with “mg/kg.” for “mg/kg. After the induction of diabetes, one group was kept as diabetic untreated control and a positive control was maintained in which the animals were treated with standard drug, glibenclamide at 3 mg/kg orally.”

[3] = system: streptozotocin-induced Type 1 diabetic model in Wistar rats; experiment: Muscle and liver glycogen in streptozotocin-induced diabetic rats
Method: as §1, with “mg/kg.” for “mg/kg. After the induction of diabetes, one group was kept as diabetic untreated control and a positive control was maintained in which the animals were treated with standard drug, glibenclamide at 3 mg/kg orally.”

[4] = system: streptozotocin-induced Type 1 diabetic model in Wistar rats; experiment: Insulin and glycosylated Hb levels in streptozotocin-induced diabetic rats
Method: as §1, with “mg/kg.” for “mg/kg. After the induction of diabetes, one group was kept as diabetic untreated control and a positive control was maintained in which the animals were treated with standard drug, glibenclamide at 3 mg/kg orally.”

`COc1ccc(Cl)cc1C(=O)NCCc1ccc(S(=O)(=O)NC(=O)NC2CCCCC2)cc1` [glibenclamide] was tested, and the “blood glucose levels, 0th day” value ([1]; 0th day) was 321 mg/dL, the “blood glucose levels, 15th day” value ([1]; 15th day) was 126 mg/dL and the “blood glucose levels, 30th day” value ([1]; 30th day) was 71 mg/dL. It also gave an HDL ([2]; HDL cholesterol) of 52 mg/dL, an LDL ([2]; LDL cholesterol) of 56 mg/dL and a VLDL [2] of 20 mg/dL. For the same compound, the TC ([2]; total cholesterol) was 128 mg/dL, the TG ([2]; triglyceride) was 100 mg/dL and the Liver glycogen [3] was 46 mg/g tissue. The Muscle glycogen [3] was 8 mg/g tissue, the “Glycosylated Hb” value [4] was 0.5 % total Hb and the Insulin level [4] was 13 μU/ml.
